Measurements: PubChem BioAssay (NCI)
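Compound exposure: 48 hours, 5 concentrations, 96-well plates. GI50 marks 50% less growth. TGI denotes the concentration required for complete inhibition of growth.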

How the values were obtained:
Test in all cases: NCI-60 cell line screen, 48 h
SF-268 CNS = test system: SF-268 CNS
PC-3 prostate = test system: PC-3 prostate
HS 578T breast = test system: HS 578T breast
UACC-257 melanoma = test system: UACC-257 melanoma
DU-145 prostate = test system: DU-145 prostate
OVCAR-8 ovarian = test system: OVCAR-8 ovarian
CAKI-1 renal = test system: CAKI-1 renal
OVCAR-3 ovarian = test system: OVCAR-3 ovarian
HOP-92 NSCLC = test system: HOP-92 NSCLC
SF-295 CNS = test system: SF-295 CNS

| SMILES | GI50 (SF-268 CNS) [µM] | TGI (SF-268 CNS) [µM] | GI50 (PC-3 prostate) [µM] | TGI (PC-3 prostate) [µM] | GI50 (HS 578T breast) [µM] | TGI (HS 578T breast) [µM] | GI50 (UACC-257 melanoma) [µM] | TGI (UACC-257 melanoma) [µM] | GI50 (DU-145 prostate) [µM] | TGI (DU-145 prostate) [µM] | GI50 (OVCAR-8 ovarian) [µM] | TGI (OVCAR-8 ovarian) [µM] | GI50 (CAKI-1 renal) [µM] | TGI (CAKI-1 renal) [µM] | GI50 (OVCAR-3 ovarian) [µM] | TGI (OVCAR-3 ovarian) [µM] | GI50 (HOP-92 NSCLC) [µM] | TGI (HOP-92 NSCLC) [µM] | GI50 (SF-295 CNS) [µM] | TGI (SF-295 CNS) [µM] |
| --- | --- | --- | --- | --- | --- | --- | --- | --- | --- | --- | --- | --- | --- | --- | --- | --- | --- | --- | --- | --- |
| COc1ccc(/C=C/C(=O)c2ccc(OC)c(OC)c2)cc1O | 8.74 | 29.1 | 12.8 | 39.6 | 11 | 90.9 | 13.8 | 26.9 | 2.34 | 5.64 | 2.98 | 10.9 | 18.1 | > 100 | 2.56 | 6.31 | 2.02 | 13.6 | – | – |
| OCc1c[te]c(-c2ccccc2)c1 | – | – | – | – | – | – | – | > 100 | – | – | – | > 100 | – | > 100 | – | 30.2 | – | – | – | – |
| CCN(CC)C1CCC(Nc2c(C(C)=O)cnc3ccc(-c4ccc(O)c(Cl)c4)cc23)CC1 (stereo not drawn) | 0.487 | 12.2 | 0.494 | > 44.5 | 0.157 | 2.81 | 2.77 | 18.3 | 0.875 | > 35.5 | 0.818 | 14 | 0.376 | 10.8 | 0.38 | 3.15 | 0.227 | 4.27 | 4.46 | 24.9 |
| CC(=O)Nc1ccc(COC(O)CN2CCCCC2)cc1[N+](=O)[O-] (stereo not drawn) | – | > 100 | – | > 100 | – | – | – | > 100 | – | > 100 | – | > 100 | – | > 100 | – | > 100 | – | > 100 | – | > 100 |
| Cc1ccc(NC(=O)/C(Cl)=C(/Cl)C(=O)O)cc1 | – | 42 | – | – | – | – | – | 44.2 | – | – | – | – | – | 31.1 | – | 32.4 | – | 32.6 | – | 96.8 |
| CC(=O)[CH-]C(=O)c1ccccc1.CC(=O)[CH-]C(=O)c1ccccc1.C[C@]12CCC(=O)C=C1CC[C@@H]1C2CC[C@@]2(C)C1CC[C@@H]2[O-].C[C@]12CCC(=O)C=C1CC[C@@H]1C2CC[C@@]2(C)C1CC[C@@H]2[O-].Cl.[Ti+4] (stereo partly drawn) | – | – | – | – | – | – | 19.3 | 69.7 | – | – | 22.6 | 93.6 | 13.8 | 46.4 | 13.2 | 65.5 | – | – | – | – |
| COc1cc([N+](=O)[O-])c(OC)cc1-c1nc2sc(Cl)cn2c1/C=N/NC1=NCCN1 | – | – | 1.71 | 3.16 | 2.22 | 4.94 | 2.23 | 4.43 | 0.306 | 1.14 | – | – | 12.9 | 51.7 | 0.882 | 2.62 | – | – | 2.74 | 52.8 |
| NCCNCc1c2ccccc2c(CNCCN)c2ccccc12 | – | 27.4 | – | – | – | – | – | 35.5 | – | – | – | 60.3 | – | – | – | 70.8 | – | 45.9 | – | 82.8 |
| COc1ccc(C(=O)C(c2ccc(OCc3ccccc3)cc2)c2ccc(OCc3ccccc3)cc2)cc1 | – | > 100 | – | – | – | – | – | – | – | – | – | > 100 | – | > 100 | – | > 100 | – | > 100 | – | > 100 |
| OCCN1CCN2C=C(C3CCCC4N(CCO)CCN34)CCC21 (stereo not drawn) | – | > 100 | – | – | – | – | – | > 100 | – | – | – | > 100 | – | > 100 | – | > 100 | – | > 100 | – | > 100 |
